# Measured values published in patent publication US8822503B2, “2-pyridone compounds” (Taisho Pharmaceutical Co., Ltd, priority 2009, dated 2014).
# Target: T1, human liver GK (Homo sapiens, UniProt P35557)
# T1 construct: GST (glutathione S-transferase) (N); made in house; host or cells: E. coli
# T1 sequence (P35557 1-466 isoform P35557-2): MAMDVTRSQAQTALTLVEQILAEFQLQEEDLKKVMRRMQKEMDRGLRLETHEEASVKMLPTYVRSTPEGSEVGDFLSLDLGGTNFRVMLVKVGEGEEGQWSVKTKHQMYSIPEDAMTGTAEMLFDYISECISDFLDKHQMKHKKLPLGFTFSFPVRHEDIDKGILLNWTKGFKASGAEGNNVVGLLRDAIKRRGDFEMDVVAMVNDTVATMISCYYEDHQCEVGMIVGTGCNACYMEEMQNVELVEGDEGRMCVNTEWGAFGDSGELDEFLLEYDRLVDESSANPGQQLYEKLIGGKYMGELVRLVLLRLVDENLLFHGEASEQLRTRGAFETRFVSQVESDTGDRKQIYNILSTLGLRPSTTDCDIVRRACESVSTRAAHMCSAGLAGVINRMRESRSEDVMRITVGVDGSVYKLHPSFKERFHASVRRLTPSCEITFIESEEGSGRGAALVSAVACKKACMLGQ
# Assay: GK activation test
# Format: biochemical
# Settings: test compound concentration needed to activate 50% of maximum activation ability; 4 mM 14C-labeled glucose, 2 mM ATP, room temperature, 20 minutes
# Method: The GK activation test for the test compounds was performed by the method of Irwin A. Rose et al. (J. Biol. Chem. 1964 January; 239:12-7) with partial modifications.
# The enzyme source used in this assay, human liver GK, was expressed in E. coli as a fusion protein with GST (glutathione S-transferase) added to the amino terminus and was purified using Glutathione Sepharose 4B (Amersham Biosciences).
# The test was carried out using flat-bottom 96-well plates (Sumitomo Bakelite Co., Ltd.). A solution of the test compound in dimethyl sulfoxide (DMSO) and DMSO as a control were added to each well of the plates at a final DMSO concentration of 1%. 25 mM Hepes-KOH (pH=7.1), 25 mM KCl, 2 mM MgCl2, 2 mM ATP, 4 mM ^14C-labeled glucose (Muromachi Yakuhin) and 1 mM DTT (dithiothreitol) were further added at the indicated final concentrations, respectively. Finally, human liver GK was added at 0.24 microgram per well and the reaction was started. The reaction was carried out at room temperature.
# After 20 minutes, AG1-X4 resin (BioRad) suspended in 25 mM Hepes-KOH (pH=7.1) was added and the reaction product, labeled glucose 6-phosphate, was allowed to bind thereto. The whole volume was transferred to MultiScreen plates (Millipore) and the resin was washed with water. Thereafter, the labeled glucose 6-phosphate binding to the resin was eluted with a 0.5 M NaCl solution. The labeling activity of the eluted labeled glucose 6-phosphate was measured as an index of GK activity.
# The GK activity maximally activated by the test compound was described as maximum activation ability, and the test compound concentration needed to activate 50% of that ability was described as EC50.
row,Compound,EC50
1,"O=C1CC[C@H](CC(c2ccc(Cl)c(C(F)(F)F)c2)c2ccc(C3CC3)c(=O)[nH]2)N1 (single isomer, unassigned) [Example 4-222]",3 to 10 µM
2,"Cc1cc(C(C[C@H]2CCC(=O)N2)c2ccc(C3CC3)c(=O)[nH]2)ccc1F (single isomer, unassigned) [Example 4-224]",3 to 10 µM
3,"O=C1CC[C@H](CC(c2ccc(C(F)F)c(Cl)c2)c2ccc(C3CC3)c(=O)[nH]2)N1 (single isomer, unassigned) [Example 4-226]",3 to 10 µM
4,"O=C1CC[C@H](CC(c2ccc(OC(F)F)cc2)c2ccc(C3CC3)c(=O)[nH]2)N1 (single isomer, unassigned) [Example 4-230]",3 to 10 µM
5,"Cc1cc(C(C[C@H]2CCC(=O)N2)c2ccc(C3CC3)c(=O)[nH]2)ccc1C(F)F (single isomer, unassigned) [Example 4-232]",3 to 10 µM
6,"O=C1CC[C@H](CC(c2ccc(C(F)F)c(F)c2)c2ccc(C3CC3)c(=O)[nH]2)N1 (single isomer, unassigned) [Example 4-234]",3 to 10 µM
7,"CCOc1ccc(C(C[C@H]2CCC(=O)N2)c2ccc(Cl)c(=O)[nH]2)cc1 (single isomer, unassigned) [Example 4-235]",3 to 10 µM
8,"CCOc1ccc(C(C[C@H]2CCC(=O)N2)c2ccc(Cl)c(=O)[nH]2)cc1C (single isomer, unassigned) [Example 4-240]",3 to 10 µM
9,"CCCc1ccc(C(C[C@H]2CCC(=O)N2)c2ccc(C(F)(F)F)cc2)[nH]c1=O (single isomer, unassigned) [Example 4-243]",3 to 10 µM
10,"COc1ccc(C(C[C@H]2CCC(=O)N2)c2ccc(C(C)(C)C)cc2)[nH]c1=O (single isomer, unassigned) [Example 4-245]",3 to 10 µM
11,"CC(C)(C)c1ccc(C(C[C@H]2CCC(=O)N2)c2ccc(OC(F)F)c(=O)[nH]2)cc1 (single isomer, unassigned) [Example 4-247]",3 to 10 µM
12,"O=C1CC[C@H](CC(c2ccc(C(F)(F)F)cc2)c2ccc(C3CC3)c(=O)[nH]2)N1 (single isomer, unassigned) [Example 4-249]",3 to 10 µM
13,"O=C1CC[C@H](CC(c2ccc(O)c(Cl)c2)c2ccc(C3CC3)c(=O)[nH]2)N1 (single isomer, unassigned) [Example 4-251]",3 to 10 µM
14,"O=C1CC[C@H](CC(c2ccc(C(F)(F)F)c(Cl)c2)c2ccc(C3CC3)c(=O)[nH]2)N1 (single isomer, unassigned) [Example 4-255]",3 to 10 µM
15,"CC(C)Oc1ccc(C(C[C@H]2CCC(=O)N2)c2ccc(Cl)c(=O)[nH]2)cc1Cl (single isomer, unassigned) [Example 4-297]",3 to 10 µM
16,"Cc1cc(C(C[C@H]2CCC(=O)N2)c2ccc(C3CC3)c(=O)[nH]2)ccc1S(=O)(=O)C1CC1 (single isomer, unassigned) [Example 4-299]",3 to 10 µM
17,"CCc1ccc(C(C[C@H]2CCC(=O)N2)c2ccc(C3CC3)c(=O)[nH]2)cc1 (single isomer, unassigned) [Example 4-303]",3 to 10 µM
18,"O=C1CC[C@H](CC(c2ccc(S(=O)(=O)C3CC3)c(Cl)c2)c2ccc(Cl)c(=O)[nH]2)N1 (single isomer, unassigned) [Example 4-305]",3 to 10 µM
19,"O=C1CC[C@H](CC(c2ccc(S(=O)(=O)C3CC3)cc2)c2ccc(C3CC3)c(=O)[nH]2)N1 (single isomer, unassigned) [Example 4-307]",3 to 10 µM
20,"CCc1ccc(C(C[C@H]2CCC(=O)N2)c2ccc(Cl)c(=O)[nH]2)cc1 (single isomer, unassigned) [Example 4-309]",3 to 10 µM
21,"Cc1ccc(C(C[C@H]2CCC(=O)N2)c2ccc(Cl)c(=O)[nH]2)cc1Cl (single isomer, unassigned) [Example 4-310]",0.5 to 3 µM
22,"Cc1ccc(C(C[C@H]2CCC(=O)N2)c2ccc(Cl)c(=O)[nH]2)cc1Cl (single isomer, unassigned) [Example 4-311]",3 to 10 µM
23,"CCCc1ccc(C(C[C@H]2CCC(=O)N2)c2ccc(Cl)c(=O)[nH]2)cc1 (single isomer, unassigned) [Example 4-312]",0.5 to 3 µM

# Results, then the compound that gave them:
row,EC50,Compound
1,0.5 to 3 µM,"O=C1CC[C@H](CC(c2ccc(C(F)(F)F)c(F)c2)c2ccc(C3CC3)c(=O)[nH]2)N1 (single isomer, unassigned) [Example 4-219]"
2,0.5 to 3 µM,"O=C1CC[C@H](CC(c2ccc(Cl)c(C(F)(F)F)c2)c2ccc(C3CC3)c(=O)[nH]2)N1 (single isomer, unassigned) [Example 4-221]"
3,0.5 to 3 µM,"Cc1cc(C(C[C@H]2CCC(=O)N2)c2ccc(C3CC3)c(=O)[nH]2)ccc1F (single isomer, unassigned) [Example 4-223]"
4,0.01 to 0.5 µM,"O=C1CC[C@H](CC(c2ccc(C(F)F)c(Cl)c2)c2ccc(C3CC3)c(=O)[nH]2)N1 (single isomer, unassigned) [Example 4-225]"
5,0.5 to 3 µM,"COc1cc(C(C[C@H]2CCC(=O)N2)c2ccc(C3CC3)c(=O)[nH]2)ccc1Cl (single isomer, unassigned) [Example 4-227]"
6,0.5 to 3 µM,"O=C1CC[C@H](CC(c2ccc(OC(F)F)cc2)c2ccc(C3CC3)c(=O)[nH]2)N1 (single isomer, unassigned) [Example 4-229]"
7,0.01 to 0.5 µM,"Cc1cc(C(C[C@H]2CCC(=O)N2)c2ccc(C3CC3)c(=O)[nH]2)ccc1C(F)F (single isomer, unassigned) [Example 4-231]"
8,0.5 to 3 µM,"O=C1CC[C@H](CC(c2ccc(C(F)F)c(F)c2)c2ccc(C3CC3)c(=O)[nH]2)N1 (single isomer, unassigned) [Example 4-233]"
9,0.5 to 3 µM,"CCOc1ccc(C(C[C@H]2CCC(=O)N2)c2ccc(Cl)c(=O)[nH]2)cc1C(F)(F)F (single isomer, unassigned) [Example 4-237]"
10,0.5 to 3 µM,"CCOc1ccc(C(C[C@H]2CCC(=O)N2)c2ccc(Cl)c(=O)[nH]2)cc1C (single isomer, unassigned) [Example 4-239]"
11,0.5 to 3 µM,"CCCc1ccc(C(C[C@H]2CCC(=O)N2)c2ccc(C(F)(F)F)cc2)[nH]c1=O (single isomer, unassigned) [Example 4-242]"
12,0.5 to 3 µM,"COc1ccc(C(C[C@H]2CCC(=O)N2)c2ccc(C(C)(C)C)cc2)[nH]c1=O (single isomer, unassigned) [Example 4-244]"
13,0.5 to 3 µM,"CC(C)(C)c1ccc(C(C[C@H]2CCC(=O)N2)c2ccc(OC(F)F)c(=O)[nH]2)cc1 (single isomer, unassigned) [Example 4-246]"
14,0.5 to 3 µM,"O=C1CC[C@H](CC(c2ccc(C(F)(F)F)cc2)c2ccc(C3CC3)c(=O)[nH]2)N1 (single isomer, unassigned) [Example 4-248]"
15,0.5 to 3 µM,"O=C1CC[C@H](CC(c2ccc(O)c(Cl)c2)c2ccc(C3CC3)c(=O)[nH]2)N1 (single isomer, unassigned) [Example 4-250]"
16,0.5 to 3 µM,"O=C1CC[C@H](CC(c2ccc(Cl)cc2)c2ccc(C3CC3)c(=O)[nH]2)N1 (single isomer, unassigned) [Example 4-252]"
17,0.01 to 0.5 µM,"O=C1CC[C@H](CC(c2ccc(C(F)(F)F)c(Cl)c2)c2ccc(C3CC3)c(=O)[nH]2)N1 (single isomer, unassigned) [Example 4-254]"
18,0.5 to 3 µM,"Cc1ccc(C(C[C@H]2CCC(=O)N2)c2ccc(C3CC3)c(=O)[nH]2)cc1 (single isomer, unassigned) [Example 4-294]"
19,0.5 to 3 µM,"CC(C)Oc1ccc(C(C[C@H]2CCC(=O)N2)c2ccc(Cl)c(=O)[nH]2)cc1Cl (single isomer, unassigned) [Example 4-296]"
20,0.01 to 0.5 µM,"Cc1cc(C(C[C@H]2CCC(=O)N2)c2ccc(C3CC3)c(=O)[nH]2)ccc1S(=O)(=O)C1CC1 (single isomer, unassigned) [Example 4-298]"
21,0.01 to 0.5 µM,"CCc1ccc(C(C[C@H]2CCC(=O)N2)c2ccc(C3CC3)c(=O)[nH]2)cc1 (single isomer, unassigned) [Example 4-302]"
22,0.01 to 0.5 µM,"O=C1CC[C@H](CC(c2ccc(S(=O)(=O)C3CC3)c(Cl)c2)c2ccc(Cl)c(=O)[nH]2)N1 (single isomer, unassigned) [Example 4-304]"
23,0.01 to 0.5 µM,"O=C1CC[C@H](CC(c2ccc(S(=O)(=O)C3CC3)cc2)c2ccc(C3CC3)c(=O)[nH]2)N1 (single isomer, unassigned) [Example 4-306]"
24,0.5 to 3 µM,"CCc1ccc(C(C[C@H]2CCC(=O)N2)c2ccc(Cl)c(=O)[nH]2)cc1 (single isomer, unassigned) [Example 4-308]"
